The numbers were not newly measured in patent EP1227797B1, “SOLID DISPERSION PHARMACEUTICAL FORMULATIONS” (ABBOTT LABORATORIES, priority 1999, dated 2001), which cites them from elsewhere.

SMILES strings stand for the structures.

The conditions of the data set: PEG solid dispersion formulation.

Take `O=C1N(Cc2ccc(CO)cc2)[C@H](Cc2ccccc2)[C@H](O)[C@@H](O)[C@@H](Cc2ccccc2)N1Cc1ccc(CO)cc1` [DMP 323]: the bioavailability entry is “unable to improve the bioavailability”.
